Patent US6022969A, “Compositions and methods for treating mast-cell mediated conditions” (AXYS Pharmaceuticals, Inc., priority 1995, dated 2000)

These compounds were tested against tryptase (assay: In vitro tryptase inhibition assay (hydrolysis of tosyl-Gly-Pro-Lys-p-nitroanilide)). Conditions: tosyl-Gly-Pro-Lys-p-nitroanilide 0.5 mM, pH 8.2, 1 h pre-incubation, room temperature.
Type: biochemical, human
Procedure: The compounds to be assayed (approximately 1 mg) were dissolved in 200 μL dimethylsulfoxide (DMSO) and diluted 1:10 into buffer containing 50 millimolar (mM) Tris-HCl (pH 8.2), 100 mM sodium chloride, and 0.05% polyoxyethylenesorbitan monolaurate (Tween-20®, available from Sigma, St. Louis, Mo.). Seven additional threefold dilutions were made from the initial dilution into the same buffer supplemented with 10% DMSO. Aliquots (50 microliters, μL) from each of the eight dilutions in the series were transferred to individual wells in a 96-well U-bottom microtiter plate. 25 μL of a stock solution of tryptase was added to each well and the samples were mixed and incubated for one hour at room temperature (tryptase was purified from human lung and skin tissue preparations, HMC-1 (human mast cell line) and also obtained from commercial sources (ICN Biomedicals, Irvine, Calif.; Athens Research & Technology, Athens, Ga.)). […] The tryptase solution was prepared by placing 60 μg/mL of tryptase into solution with 10 mM MES (2-[N-Morpholino]ethane sulfonic acid) containing 2 mM CaCl2, 20% glycerol and 50 μg/mL heparin. The enzyme reaction was initiated with the addition of the synthetic tripeptide substrate, tosyl-Gly-Pro-Lys-p-nitroanilide (available from Sigma, 25 μL; 0.5 mM final concentration).
However, Ki ' varies with the enzyme concentration used in the enzyme assay. […] The y-intercept of a replot of IC50 (ordinate) versus tryptase concentration (abscissa) produces a value for Ki '.
The inhibition constants (Ki ', micromolar (μM)) were determined for the compounds of the present invention.

Compared with `NCC1CCN(C(=O)NCC2CCN(C(=O)O[C@H]3CCC[C@@H](OC(=O)N4CCC(CNC(=O)N5CCC(CN)CC5)CC4)CCC3)CC2)CC1` [Compound 26, cis-1,5-cyclooctylene bis{4-[4-(aminomethyl)piperid-1-ylcarbonylaminomethyl)-1-piperidinecarboxylate}], `N=C(N)C1CCN(C(=O)NCC2CCN(C(=O)O[C@H]3CCC[C@@H](OC(=O)N4CCC(CNC(=O)N5CCC(C(=N)N)CC5)CC4)CCC3)CC2)CC1` [Compound 45, cis-1,5-cyclooctylene bis[4-(4-amidinopiperid-1-ylcarbonylaminomethyl)-1-piperidinecarboxylate]] is 2.9-fold lower in Ki: 332 nM for the first, 114 nM for the second. The second binds more tightly here.

Compared with `N=C(N)N1CCC(CNC(=O)N2CCN(C(=O)O[C@H]3CCC[C@@H](OC(=O)N4CCN(C(=O)NCC5CCN(C(=N)N)CC5)CC4)CCC3)CC2)CC1` [Compound 27, cis-1,5-cyclooctylene bis[4-(1-amidinopiperid-4-ylmethylcarbamoyl)-1-piperazinecarboxylate]], `N=C(N)Nc1ccc(CNC(=O)N2CCN(C(=O)O[C@H]3CCC[C@@H](OC(=O)N4CCN(C(=O)NC[C@H]5CC[C@H](CN)CC5)CC4)CCC3)CC2)cc1` [Compound 52] is 1300-fold lower in Ki: 614 nM for the first, 0.48 nM for the second. The second binds more tightly here.

Compared with `N=C(N)c1ccc(CNC(=O)N2CCN(C(=O)O[C@H]3CCC[C@@H](OC(=O)N4CCN(C(=O)NCc5ccc(C(=N)N)cc5)CC4)CCC3)CC2)cc1` [Compound 28, cis-1,5-cyclooctylene bis[4-(4-amidinobenzylcarbamoyl)-1-piperazinecarboxylate}], `N=C(N)c1ccc(CCNC(=O)N2CCN(C(=O)O[C@H]3CCC[C@@H](OC(=O)N4CCN(C(=O)NCCc5ccc(C(=N)N)cc5)CC4)CCC3)CC2)cc1` [Compound 33, cis-1,5-cyclooctylene bis{4-[2-(4-amidinophenyl)ethylcarbamoyl)-1-piperazinecarboxylate}] is 51-fold higher in Ki: 8.7 nM for the first, 440 nM for the second.

`N=C(N)Nc1ccc(CNC(=O)N2CCN(C(=O)OC3COC4C(OC(=O)N5CCN(C(=O)NCc6ccc(NC(=N)N)cc6)CC5)COC34)CC2)cc1` (stereo not drawn) [Compound 29, cis-2,6-(4,8-dioxabicyclo[3.3.0]octylene)bis[4-(4-guanidinobenzylcarbamoyl)-1-piperazinecarboxylate]] and `N=C(N)Nc1ccc(CNC(=O)N2CCN(C(=O)OC[C@H]3CC[C@@H](COC(=O)N4CCN(C(=O)NCc5ccc(NC(=N)N)cc5)CC4)CC3)CC2)cc1` [Compound 49, cis-1,4-cyclohexylenedimethylene bis[4-(4-guanidinobenzylcarbamoyl)-1-piperazinecarboxylate]] are within 1.5-fold of each other in Ki: 3.8 nM for the first, 3.4 nM for the second.

Going from `N=C(N)Nc1ccc(CNC(=O)N2CCN(C(=O)OCC3C4C=CC(CC4)C3COC(=O)N3CCN(C(=O)NCc4ccc(NC(=N)N)cc4)CC3)CC2)cc1` (stereo not drawn) [Compound 30, trans-2,3-bicyclo[2.2.2]oct-5-enylenedimethylene bis[4-(4-guanidinobenzylcarbamoyl)-1-piperazinecarboxylate]] to `N=C(N)Nc1ccc(CNC(=O)N2CCN(C(=O)OCC34CCC(COC(=O)N5CCN(C(=O)NCc6ccc(NC(=N)N)cc6)CC5)(CC3)CC4)CC2)cc1` [Compound 47, 1,4-bicyclo[2.2.2]octylenedimethylene bis[4-(4-guanidinobenzylcarbamoyl)-1-piperazinecarboxylate]], the Ki falls from 8 nM to 0.42 nM (19-fold). The second binds more tightly here.

Going from `N=C(N)Nc1ccc(CNC(=O)N2CCN(C(=O)OCC34CC5CC(C3)CC(COC(=O)N3CCN(C(=O)NCc6ccc(NC(=N)N)cc6)CC3)(C5)C4)CC2)cc1` [Compound 31, cis-1,5-tetracyclo[3.3.1.1^3,7]decylenedimethylene bis[4-(4-guanidinobenzylcarbamoyl)-1-piperazinecarboxylate]] to `N=C(N)Nc1ccc(CNC(=O)N2CCN(C(=O)C3CCCCC3C(=O)N3CCN(C(=O)NCc4ccc(NC(=N)N)cc4)CC3)CC2)cc1` (stereo not shown) [Compound 46, 1,2-cyclohexylene bis[4-(4-guanidinobenzylcarbamoyl)-1-piperazinecarboxadehyde]], the Ki rises from 26.6 nM to 772 nM (29-fold). The first binds more tightly here.

Compared with `NCCCCCNC(=O)N1CCN(C(=O)O[C@H]2CCC[C@@H](OC(=O)N3CCN(C(=O)NCCCCCN)CC3)CCC2)CC1` [Compound 34, cis-1,5-cyclooctylene bis[4-(5-aminopentylcarbamoyl)-1-piperazinecarboxylate]], `NCCCCCCNC(=O)N1CCN(C(=O)O[C@H]2CCC[C@@H](OC(=O)N3CCN(C(=O)NCCCCCCN)CC3)CCC2)CC1` [Compound 35, cis-1,5-cyclooctylene bis[4-(6-aminohexylcarbamoyl)-1-piperazinecarboxylate]] is 130-fold higher in Ki: 11 nM for the first, 1440 nM for the second. The first binds more tightly here.

Going from `NCCC=CCNC(=O)N1CCN(C(=O)O[C@H]2CCC[C@@H](OC(=O)N3CCN(C(=O)NCC=CCCN)CC3)CCC2)CC1` [Compound 36, cis-1,5-cyclooctylene bis[4-(5-amino-2-pentenylcarbamoyl)-1-piperazinecarboxylate]] to `NCCCCNC(=O)N1CCN(C(=O)O[C@H]2CCC[C@@H](OC(=O)N3CCN(C(=O)NCCCCN)CC3)CCC2)CC1` [Compound 37, cis-1,5-cyclooctylene bis[4-(4-aminobutylcarbamoyl)-1-piperazinecarboxylate]], the Ki rises from 125 nM to 508 nM (4.1-fold).

Compared with `NCCOCCNC(=O)N1CCN(C(=O)O[C@H]2CCC[C@@H](OC(=O)N3CCN(C(=O)NCCOCCN)CC3)CCC2)CC1` [Compound 38, cis-1,5-cyclooctylene bis{4-[2-(2-aminoethoxy)ethylcarbamoyl]-1-piperazinecarboxylate}], `N=C(N)Nc1ccc(CNC(=O)N2CCN(C(=O)O[C@H]3CCC[C@@H](OC(=O)N4CCN(C(=O)NCCCN)CC4)CCC3)CC2)cc1` [Compound 53, cis-5-[4-(3-aminopropylcarbamoyl)piperazin-1-ylformyloxy]cyclooctyl 4-(4-guanidinobenzylcarbamoyl)-1-piperazinecarboxylate] is 17-fold lower in Ki: 750 nM for the first, 44 nM for the second. The second binds more tightly here.

First: NC[C@H]1CC[C@H](NC(=O)OC2CCN(C(=O)O[C@H]3CCC[C@@H](OC(=O)N4CCC(OC(=O)N[C@H]5CC[C@H](CN)CC5)CC4)CCC3)CC2)CC1 [Compound 39, cis-1,5-cyclooctylene bis[4-(trans-4-aminomethylcyclohexylaminoformyloxy)-1-piperidinecarboxylate]]
Second: NC[C@H]1CC[C@H](CNC(=O)OC2CCN(C(=O)O[C@H]3CCC[C@@H](OC(=O)N4CCC(OC(=O)NC[C@H]5CC[C@H](CN)CC5)CC4)CCC3)CC2)CC1 [Compound 43, cis-1,5-cyclooctylene bis[4-(trans-4-aminomethylcyclohexylmethylaminoformyloxy)-1-piperidinecarboxylate]]
The Ki of the first is 1.7-fold lower: 858 nM for the first, 1450 nM for the second.

`CN(CCOC(=O)N[C@H]1CC[C@H](CN)CC1)C(=O)O[C@H]1CCC[C@@H](OC(=O)N(C)CCOC(=O)N[C@H]2CC[C@H](CN)CC2)CCC1` [Compound 40, cis-1,5-cyclooctylene bis[N-2-(trans-4-aminomethylcyclohexylaminoformyloxy)ethyl-N-methylaminocarboxylate]] and `CN(CCOC(=O)NC[C@H]1CC[C@H](CN)CC1)C(=O)O[C@H]1CCC[C@@H](OC(=O)N(C)CCOC(=O)NC[C@H]2CC[C@H](CN)CC2)CCC1` [Compound 41, cis-1,5-cyclooctylene bis[N-2-(trans-4-aminomethylcyclohexylmethylaminoformyloxy)ethyl-N-methylaminocarboxylate}] are within 1.5-fold of each other in Ki: 1390 nM for the first, 1100 nM for the second.

Compared with `NC[C@H]1CC[C@H](CNC(=O)N2CCN(C(=O)OC[C@H]3CC[C@H](COC(=O)N4CCN(C(=O)NC[C@H]5CC[C@H](CN)CC5)CC4)CC3)CC2)CC1` [Compound 42, trans-1,4-cyclohexylenedimethylene bis[4-(trans-4-aminomethylcyclohexylmethylcarbamoyl)-1-piperazinecarboxylate]], `N=C(N)Nc1ccc(CNC(=O)N2CCN(C(=O)O[C@H]3CCC[C@@H](OC(=O)N4CCN(C(=O)NCCCCN)CC4)CCC3)CC2)cc1` [Compound 51, cis-5-[4-(4-aminobutylcarbamoyl)piperazin-1-ylformyloxy]cyclooctyl 4-(4-guanidinobenzylcarbamoyl)-1-piperazinecarboxylate] is 17-fold lower in Ki: 64 nM for the first, 3.8 nM for the second. The second binds more tightly here.

Compared with `N=C(N)c1ccc(C(=O)NCC2CCN(C(=O)O[C@H]3CCC[C@@H](OC(=O)N4CCC(CNC(=O)c5ccc(C(=N)N)cc5)CC4)CCC3)CC2)cc1` [Compound 44, cis-1,5-cyclooctylene bis[4-(4-amidinobenzoylaminomethyl)-1-piperidinecarboxylate]], `N=C(N)Nc1ccc(C(=O)NCC2CCN(C(=O)O[C@H]3CCC[C@@H](OC(=O)N4CCC(CNC(=O)c5ccc(NC(=N)N)cc5)CC4)CCC3)CC2)cc1` [Compound 48, cis-1,5-cyclooctylene bis[4-(4-guanidinophenylcarbonylaminomethyl)-1-piperidinecarboxylate]] is 290-fold higher in Ki: 8 nM for the first, 2300 nM for the second. The first binds more tightly here.

First: N=C(N)Nc1ccc(CNC(=O)N2CCN(C(=O)O[C@H]3CCC[C@@H](OC(=O)N4CCN(C(=O)NCCCCCN)CC4)CCC3)CC2)cc1 [Compound 50, cis-5-[4-(5-aminopentylcarbamoyl)piperazin-1-ylformyloxy]cyclooctyl 4-(4-guanidinobenzylcarbamoyl)-1-piperazinecarboxylate]
Second: N=C(N)Nc1ccc(CNC(=O)N2CCN(C(=O)O[C@H]3CCC[C@@H](OC(=O)N4CCN(C(=O)NCCCCCCN)CC4)CCC3)CC2)cc1 [Compound 54, cis-5-[4-(6-aminohexylcarbamoyl)piperazin-1-ylformyloxy]cyclooctyl 4-(4-guanidinobenzylcarbamoyl)-1-piperazinecarboxylate]
The Ki of the first is 44-fold lower: 0.45 nM for the first, 20 nM for the second.
